According to patent US20260042731A1, “(2,4-DICHLOROPHENOXY)ACETIC ACID ANALOGS” (CORTEVA AGRISCIENCE LLC, priority 2022, published 2026):
Read-outs that look alike come from different tables or passages of the source.

Tests used:
[1] = tested on: glyphosate resistant Conyza canadensis (L.) (ERICA), horseweed; assay: Postemergence herbicide evaluation, growth of Conyza canadensis (ERICA); assay type: in vivo; details: Erigeron canadensis, post-emergence, percent reduction in plant size vs untreated control, read-out: Ave. ERICA; for pest or weed control at 280 g/ha: 280 g ae/ha; for pest or weed control at 560 g/ha: 560 g ae/ha
[2] = tested on: weeds ABUTH, AMATA, AMBEL, CHEAL, ERICA; assay: Postemergence herbicide evaluation, overall average % weed control across ABUTH, AMATA, AMBEL, CHEAL and ERICA; assay type: in vivo; details: post-emergence, average over five weeds, read-out: Overall Ave % Weed Control; for pest or weed control at 280 g/ha: 280 g ae/ha; for pest or weed control at 560 g/ha: 560 g ae/ha
[3] = tested on: Abutilon theophrasti (ABUTH), velvetleaf; assay: Postemergence herbicide evaluation, growth of Abutilon theophrasti (ABUTH); assay type: in vivo; details: Abutilon theophrasti, post-emergence, percent reduction in plant size vs untreated control, read-out: AVE. ABUTH; for pest or weed control at 280 g/ha: 280 g ae/ha; for pest or weed control at 560 g/ha: 560 g ae/ha
[4] = tested on: Ambrosia artemisiifolia (AMBEL), common ragweed; assay: Postemergence herbicide evaluation, growth of Ambrosia artemisiifolia (AMBEL); assay type: in vivo; details: Ambrosia artemisiifolia, post-emergence, percent reduction in plant size vs untreated control, read-out: AVE. AMBEL; for pest or weed control at 280 g/ha: 280 g ae/ha; for pest or weed control at 560 g/ha: 560 g ae/ha
[5] = tested on: Amaranthus rudis (AMATA), tall water hemp; assay: Postemergence herbicide evaluation, growth of Amaranthus rudis (AMATA); assay type: in vivo; details: Amaranthus tuberculatus, post-emergence, percent reduction in plant size vs untreated control, read-out: Ave. AMATA; for pest or weed control at 280 g/ha: 280 g ae/ha; for pest or weed control at 560 g/ha: 560 g ae/ha
[6] = tested on: Chenopodium album (CHEAL), common lambsquarters; assay: Postemergence herbicide evaluation, growth of Chenopodium album (CHEAL); assay type: in vivo; details: Chenopodium album, post-emergence, percent reduction in plant size vs untreated control, read-out: Ave. CHEAL; for pest or weed control at 280 g/ha: 280 g ae/ha; for pest or weed control at 560 g/ha: 560 g ae/ha
[7] = Volatility of compounds measured by thermogravimetric analysis (TGA); assay type: physicochemical

Structure (SMILES) | pest or weed control at 280 g/ha ([1]; 168 h, 7 DAA) [%] | pest or weed control at 560 g/ha ([1]; 168 h, 7 DAA) [%] | pest or weed control at 280 g/ha ([1]; 336 h, 14 DAA) [%] | pest or weed control at 560 g/ha ([1]; 336 h, 14 DAA) [%] | pest or weed control at 280 g/ha ([1]; 504 h, 21 DAA) [%] | pest or weed control at 560 g/ha ([1]; 504 h, 21 DAA) [%] | pest or weed control at 280 g/ha ([2]; 168 h, 7 DAA) [%] | pest or weed control at 560 g/ha ([2]; 168 h, 7 DAA) [%] | pest or weed control at 280 g/ha ([2]; 336 h, 14 DAA) [%] | pest or weed control at 560 g/ha ([2]; 336 h, 14 DAA) [%] | pest or weed control at 280 g/ha ([2]; 504 h, 21 DAA) [%] | pest or weed control at 560 g/ha ([2]; 504 h, 21 DAA) [%] | pest or weed control at 280 g/ha ([3]; 168 h, 7 DAA) [%] | pest or weed control at 560 g/ha ([3]; 168 h, 7 DAA) [%] | pest or weed control at 280 g/ha ([3]; 336 h, 14 DAA) [%] | pest or weed control at 560 g/ha ([3]; 336 h, 14 DAA) [%] | pest or weed control at 280 g/ha ([3]; 504 h, 21 DAA) [%] | pest or weed control at 560 g/ha ([3]; 504 h, 21 DAA) [%] | pest or weed control at 280 g/ha ([4]; 168 h, 7 DAA) [%] | pest or weed control at 560 g/ha ([4]; 168 h, 7 DAA) [%] | further results
Cc1cc(NC(=O)COc2ccc(Cl)cc2Cl)n(C)n1 [Compound D14] | 82.5 | 72.5 | 94 | 94 | 98.5 | 100 | 69.5 | 69.5 | 79.6 | 85 | 83.7 | 91.5 | 37.5 | 50 | 45 | 52.5 | 52.5 | 65 | 80 | 75 | pest or weed control at 280 g/ha ([4]; 336 h, 14 DAA): 72.5%; pest or weed control at 560 g/ha ([4]; 336 h, 14 DAA): 97%; pest or weed control at 280 g/ha ([4]; 504 h, 21 DAA): 100%; pest or weed control at 560 g/ha ([4]; 504 h, 21 DAA): 100%; pest or weed control at 280 g/ha ([5]; 168 h, 7 DAA): 75%; pest or weed control at 560 g/ha ([5]; 168 h, 7 DAA): 75%; pest or weed control at 280 g/ha ([5]; 336 h, 14 DAA): 90%; pest or weed control at 560 g/ha ([5]; 336 h, 14 DAA): 91.5%; pest or weed control at 280 g/ha ([5]; 504 h, 21 DAA): 72.5%; pest or weed control at 560 g/ha ([5]; 504 h, 21 DAA): 92.5%; pest or weed control at 280 g/ha ([6]; 168 h, 7 DAA): 72.5%; pest or weed control at 560 g/ha ([6]; 168 h, 7 DAA): 75%; pest or weed control at 280 g/ha ([6]; 336 h, 14 DAA): 96.5%; pest or weed control at 560 g/ha ([6]; 336 h, 14 DAA): 90%; pest or weed control at 280 g/ha ([6]; 504 h, 21 DAA): 95%; pest or weed control at 560 g/ha ([6]; 504 h, 21 DAA): 100%; TGA Data (rate of weight loss, volatility) [7]: 0.01234 µg/min
CCN(CC)OC(=O)COc1ccc(Cl)cc1Cl [Compound A21] | 85 | 82.5 | 92 | 94 | 97.5 | 100 | 74.5 | 81.5 | 84.4 | 94.1 | 93 | 99.7 | 60 | 87.5 | 67.5 | 94.5 | 90 | 99.5 | 70 | 70 | pest or weed control at 280 g/ha ([4]; 336 h, 14 DAA): 80%; pest or weed control at 560 g/ha ([4]; 336 h, 14 DAA): 98%; pest or weed control at 280 g/ha ([4]; 504 h, 21 DAA): 100%; pest or weed control at 560 g/ha ([4]; 504 h, 21 DAA): 100%; pest or weed control at 280 g/ha ([5]; 168 h, 7 DAA): 80%; pest or weed control at 560 g/ha ([5]; 168 h, 7 DAA): 85%; pest or weed control at 280 g/ha ([5]; 336 h, 14 DAA): 90%; pest or weed control at 560 g/ha ([5]; 336 h, 14 DAA): 87.5%; pest or weed control at 280 g/ha ([5]; 504 h, 21 DAA): 80%; pest or weed control at 560 g/ha ([5]; 504 h, 21 DAA): 100%; pest or weed control at 280 g/ha ([6]; 168 h, 7 DAA): 77.5%; pest or weed control at 560 g/ha ([6]; 168 h, 7 DAA): 82.5%; pest or weed control at 280 g/ha ([6]; 336 h, 14 DAA): 92.5%; pest or weed control at 560 g/ha ([6]; 336 h, 14 DAA): 96.5%; pest or weed control at 280 g/ha ([6]; 504 h, 21 DAA): 97.5%; pest or weed control at 560 g/ha ([6]; 504 h, 21 DAA): 99%; TGA Data (rate of weight loss, volatility) ([7]; value marked *: decomposition of the material was observed): 1.352* μg/min
